Results: patent US11591596B2, “Compounds and compositions including phosphorothioated oligodeoxynucleotide, and methods of use thereof” (City of Hope, priority 2015, dated 2023)

Tests used:
[1] = system: human AML CD34+ cells; test: Cell cycling, apoptosis and cell growth of AML CD34+ cells with Ara-c and Doxo; format: cell-based; details: 500 nM combined with Ara-c and Doxo
Description: AML CD34+ cells were cultured with CpG-anti-miR-126 or CpG-SCR (500 nM) for 48 hours, then furthered cultured with miR126 inh+Ara-c+Doxo or SCR+A+D for 72 hours, then cell cycling, apoptosis (FIG. 12B) and cell growth (FIG. 12C) were analyzed.

[2] = system: mouse CML LSC; test: In vivo treatment of transplanted CML mice in combination with NIL; details: 5 mg/kg i.v. 4 times a week plus NIL 50 mg/kg daily by gavage, 3 weeks
Description: FIGS. 24A-24I. […] BM cells from SCL-tTA/BCR-ABL mice (CD45.2) were transplanted into congenic B6 mice (CD45.1, n=40) to generate a cohort of mice with CML-like disease. Following confirmation of CML development at 4 weeks after transplantation, mice were randomly divided into 4 groups (n=10 each) and treated with CpG-miR-126 inhibitor (5 mg/kg i.v. 4 times a week), CpG-scrRNA (5 mg/kg, i.v. 4 times a week), CpG-miR-126 inhibitor plus NIL (50 mg/kg, daily by gavage), and CpG-scrRNA plus NIL for 3 weeks. Percentage of donor CML cells in peripheral blood (PB) (FIG. 24A), spleen (FIG. 24B) and bone marrow (BM) (FIG. 24C), numbers of donor CML LSK in spleen (FIG. 24D) and BM (FIG. 24E), and numbers of donor CML long term hematopoietic stem cells (LTHSC) in spleen (FIG. 24F) and BM (FIG. 24G) after 3 weeks' treatment were measured. […] The recipient mice were monitored for 16 weeks for CML cell engraftment in blood and leukemia development by WBC count. Frequency of LIC was quantified using L-Calc software (FIG. 24I). […]
BM cells from SCL-tTA/BCR-ABL mice (CD45.2) were transplanted into congenic B6 mice (CD45.1, n=40) to generate a cohort of mice with CML-like disease. […] The recipient mice were monitored for 16 weeks for CML cell engraftment in blood and leukemia development by WBC count. Frequency of LIC was quantified using L-Calc software (FIG. 24I). […]

[3] = compared with Ara-c and Doxo alone

“5′ G*G*T GCA TCG ATG CAGG*G*G* G*G (SEQ ID NO: 1) xxxxx mCmGmC mAmUmU mAmUmU mAmCmU mCmAmC mGmGmU mAmCmG mA (SEQ ID NO: 17) 3′ [CpG-anti-miR126]” was tested, and the cell growth [1] was “reduction of cell growth”, the apoptosis [1, 3] was “significantly increased” and the cell cycling [1, 3] was “significantly increased”. For the same substance, the “elimination of mouse CML LSC” value [2] was “enhances elimination of mouse CML LSC”.
